# Data as given in patent publication US8178658B2 (Dow AgroSciences, LLC, priority 2008, dated 2012).
# What was measured:
# [1] = system: beet armyworm (BAW; Spodoptera exigua: Lepidoptera); test: 96-well microtiter plate-based high throughput (HTS) diet bioassay on beet armyworm (BAW HTS); type: in vivo; conditions: BAW eggs, 12 μg test compound per well, mortality at 6 d post-treatment, mortality class
# Outline: (§1)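 Percent larval mortality after six days was the endpoint. Higher-throughput plates used eggs, 12 μg compound per well and 29° C darkness; trays used second instar larvae, a 50 μg/cm^2 dose and 25° C with 14:10 light cycle.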
# [2] = system: beet armyworm (BAW; Spodoptera exigua: Lepidoptera); test: 128-well diet tray assay on beet armyworm (BAW 50); type: in vivo; conditions: 128-well diet tray assay; 50 μg/cm^2 of test compound on diet; second instar BAW larvae; mortality class
# Outline: as §1
# [3] = 96-well microtiter plate HTS diet assay
SMILES,BAW HTS ([1]; 96-well HTS diet bioassay),"BAW HTS [1, 3]",BAW 50 ug/cm2 [2]
CO[C@@H]1[C@@H](OC)[C@H](C)O[C@@H](O/N=C/c2ccc(-c3cn(-c4ccc(OC(F)(F)C(F)(F)F)cc4)cn3)cc2)[C@@H]1OC [Compound 51],B (either (1) the compound was tested and less than 50 percent mortality was observed or (2) the compound was not tested),B (either (1) the compound was tested and less than 50 percent mortality was observed or (2) the compound was not tested),A (the compound was tested and at least 50 percent mortality was observed)
CCOC1C(C)OC(ON=Cc2ccc(-c3cn(-c4ccc(OC(F)(F)C(F)(F)F)cc4)cn3)cc2)C(OCC)C1OCC (stereo not drawn) [Compound 52],B (either (1) the compound was tested and less than 50 percent mortality was observed or (2) the compound was not tested),B (either (1) the compound was tested and less than 50 percent mortality was observed or (2) the compound was not tested),A (the compound was tested and at least 50 percent mortality was observed)
CCOC(=O)C1C(c2ccc(/C=N/O[C@@H]3O[C@@H](C)[C@H](OC)[C@@H](OC)[C@H]3OC)cc2)=NN(c2ccc(OC(F)(F)F)cc2)C1C(=O)OCC (stereo partly drawn) [Compound 53],A (the compound was tested and at least 50 percent mortality was observed),A (the compound was tested and at least 50 percent mortality was observed),A (the compound was tested and at least 50 percent mortality was observed)
COC(=O)C1CC(c2ccc(/C=N/O[C@@H]3O[C@@H](C)[C@H](OC)[C@@H](OC)[C@H]3OC)cc2)=NN1c1ccc(OC(F)(F)F)cc1 (stereo partly drawn) [Compound 54],A (the compound was tested and at least 50 percent mortality was observed),A (the compound was tested and at least 50 percent mortality was observed),A (the compound was tested and at least 50 percent mortality was observed)
CCCC1C(c2ccc(/C=N/O[C@@H]3O[C@@H](C)[C@H](OC)[C@@H](OC)[C@H]3OC)cc2)=NN(c2ccc(OC(F)(F)F)cc2)C1C(=O)OCC (stereo partly drawn) [Compound 55],A (the compound was tested and at least 50 percent mortality was observed),A (the compound was tested and at least 50 percent mortality was observed),A (the compound was tested and at least 50 percent mortality was observed)
CCOC(=O)C1C(C)C(c2ccc(/C=N/O[C@@H]3O[C@@H](C)[C@H](OC)[C@@H](OC)[C@H]3OC)cc2)=NN1c1ccc(OC(F)(F)F)cc1 (stereo partly drawn) [Compound 56],A (the compound was tested and at least 50 percent mortality was observed),A (the compound was tested and at least 50 percent mortality was observed),A (the compound was tested and at least 50 percent mortality was observed)
COC1C(C)OC(ON=Cc2ccc(-n3cnc(-c4ccc(C(F)(F)F)cc4)c3)cc2)C(OC)C1OC (stereo not drawn) [Compound 57],A (the compound was tested and at least 50 percent mortality was observed),A (the compound was tested and at least 50 percent mortality was observed),A (the compound was tested and at least 50 percent mortality was observed)
COC1C(C)OC(ON=Cc2cccc(-c3cn(-c4ccc(OC(F)(F)F)cc4)cn3)c2)C(OC)C1OC (stereo not drawn) [Compound 58],A (the compound was tested and at least 50 percent mortality was observed),A (the compound was tested and at least 50 percent mortality was observed),A (the compound was tested and at least 50 percent mortality was observed)
COC1C(C)OC(ON=Cc2ccc(-c3cn(-c4ccc(OC(F)(F)F)c(C(F)(F)F)c4)cn3)cc2)C(OC)C1OC (stereo not drawn) [Compound 59],A (the compound was tested and at least 50 percent mortality was observed),A (the compound was tested and at least 50 percent mortality was observed),A (the compound was tested and at least 50 percent mortality was observed)
CCCc1ccc(-c2cc(-c3ccc(C=NOC4OC(C)C(OC)C(OC)C4OC)cc3)no2)cc1 (stereo not drawn) [Compound 60],A (the compound was tested and at least 50 percent mortality was observed),A (the compound was tested and at least 50 percent mortality was observed),A (the compound was tested and at least 50 percent mortality was observed)
CCCCOc1ccc(-c2cc(-c3ccc(C=NOC4OC(C)C(OC)C(OC)C4OC)cc3)no2)cc1 (stereo not drawn) [Compound 61],A (the compound was tested and at least 50 percent mortality was observed),A (the compound was tested and at least 50 percent mortality was observed),A (the compound was tested and at least 50 percent mortality was observed)
COc1ccc(-c2nc(-c3ccc(C=NOC4OC(C)C(OC)C(OC)C4OC)cc3)cs2)cc1 (stereo not drawn) [Compound 62],A (the compound was tested and at least 50 percent mortality was observed),A (the compound was tested and at least 50 percent mortality was observed),A (the compound was tested and at least 50 percent mortality was observed)
COC1C(C)OC(ON=Cc2ccc(-c3csc(-c4ncc(C(F)(F)F)cc4Cl)n3)cc2)C(OC)C1OC (stereo not drawn) [Compound 63],A (the compound was tested and at least 50 percent mortality was observed),A (the compound was tested and at least 50 percent mortality was observed),A (the compound was tested and at least 50 percent mortality was observed)
COC1C(C)OC(ON=Cc2ccc(-c3csc(-c4ccc(OCC(F)(F)F)nc4)n3)cc2)C(OC)C1OC (stereo not drawn) [Compound 64],A (the compound was tested and at least 50 percent mortality was observed),A (the compound was tested and at least 50 percent mortality was observed),A (the compound was tested and at least 50 percent mortality was observed)
COC1C(C)OC(ON=Cc2ccc(-c3csc(-c4ccc(C(F)(F)F)cc4)n3)cc2)C(OC)C1OC (stereo not drawn) [Compound 65],A (the compound was tested and at least 50 percent mortality was observed),A (the compound was tested and at least 50 percent mortality was observed),A (the compound was tested and at least 50 percent mortality was observed)
COC1C(C)OC(ON=Cc2ccc(-c3csc(-c4ccc(C(F)(F)F)nc4)n3)cc2)C(OC)C1OC (stereo not drawn) [Compound 66],A (the compound was tested and at least 50 percent mortality was observed),A (the compound was tested and at least 50 percent mortality was observed),A (the compound was tested and at least 50 percent mortality was observed)
COC1C(C)OC(ON=Cc2ccc(-c3ccn(-c4ccc(OC(F)(F)F)cc4)c3)cc2)C(OC)C1OC (stereo not drawn) [Compound 67],B (either (1) the compound was tested and less than 50 percent mortality was observed or (2) the compound was not tested),B (either (1) the compound was tested and less than 50 percent mortality was observed or (2) the compound was not tested),A (the compound was tested and at least 50 percent mortality was observed)
CCOC1C(OC)C(C)OC(ON=Cc2ccc(C3=NC(c4ccc(OC(F)(F)F)cc4)CO3)cc2)C1OC (stereo not drawn) [Compound 68],B (either (1) the compound was tested and less than 50 percent mortality was observed or (2) the compound was not tested),B (either (1) the compound was tested and less than 50 percent mortality was observed or (2) the compound was not tested),A (the compound was tested and at least 50 percent mortality was observed)
CO[C@@H]1[C@@H](OC)[C@H](C)O[C@@H](O/N=C/c2ccc(-n3cnc(-c4ccc(Cl)cn4)n3)cc2)[C@@H]1OC [Compound 69],B (either (1) the compound was tested and less than 50 percent mortality was observed or (2) the compound was not tested),B (either (1) the compound was tested and less than 50 percent mortality was observed or (2) the compound was not tested),B (either (1) the compound was tested and less than 50 percent mortality was observed or (2) the compound was not tested)
CO[C@@H]1[C@@H](OC)[C@H](C)O[C@@H](O/N=C/c2ccc(-n3cnc(-c4ccccc4F)n3)cc2)[C@@H]1OC [Compound 70],A (the compound was tested and at least 50 percent mortality was observed),A (the compound was tested and at least 50 percent mortality was observed),B (either (1) the compound was tested and less than 50 percent mortality was observed or (2) the compound was not tested)
CO[C@@H]1[C@@H](OC)[C@H](C)O[C@@H](O/N=C/c2ccc(-n3cnc(-c4cccnc4)n3)cc2)[C@@H]1OC [Compound 71],A (the compound was tested and at least 50 percent mortality was observed),A (the compound was tested and at least 50 percent mortality was observed),B (either (1) the compound was tested and less than 50 percent mortality was observed or (2) the compound was not tested)
